Measurements from US20260174878A1, “IRAK4 DEGRADATION AGENT AND USE THEREOF” (LEADINGTAC PHARMACEUTICAL (SHAOXING) CO., LTD., priority 2022, published 2026).

Columns and labels:
[1] = biological target: T1, IRAK4 kinase (Homo sapiens, UniProt Q9NWZ3); experiment: IRAK4 kinase activity test (KinEASE-STK S1 HTRF kit); type: biochemical; details: IRAK4 kinase 2.5 nM, 7 μM adenosine triphosphate, 37° C. 120 min
T1 construct: purchased Carna
T1 sequence (Q9NWZ3 1-460): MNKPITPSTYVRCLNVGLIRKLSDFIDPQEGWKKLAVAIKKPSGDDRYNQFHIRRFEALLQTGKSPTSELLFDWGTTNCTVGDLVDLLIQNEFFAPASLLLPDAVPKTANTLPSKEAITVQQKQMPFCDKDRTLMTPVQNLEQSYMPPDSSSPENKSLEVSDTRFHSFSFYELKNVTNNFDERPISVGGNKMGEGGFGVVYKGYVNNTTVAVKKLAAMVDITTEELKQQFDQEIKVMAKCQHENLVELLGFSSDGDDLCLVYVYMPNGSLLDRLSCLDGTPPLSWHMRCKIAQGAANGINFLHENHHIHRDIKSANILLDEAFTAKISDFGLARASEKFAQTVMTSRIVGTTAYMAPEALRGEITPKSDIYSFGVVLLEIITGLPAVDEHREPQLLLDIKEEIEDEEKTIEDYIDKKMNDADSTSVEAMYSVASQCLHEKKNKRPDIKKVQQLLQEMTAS
Protocol: Then 2.5 nM IRAK4 kinase (Carna), 1 μM biotinylated polypeptide substrate (Cisbio), and 7 μM adenosine triphosphate (Sigma-Aldrich) were sequentially added, and the mixtures were incubated at 37° C. for 120 min. Subsequently, an anti-phosphoserine/threonine antibody (Cisbio) conjugated with a europium element compound and streptavidin conjugated with a modified XL665 (Cisbio) were added to the reaction system to stop the reaction. After 1 h of incubation at room temperature, the fluorescence intensity of each well was measured at the excitation wavelength of 337 nm and the emission wavelengths of 620 nm and 665 nm with a microplate reader EnVision (PerkinElmer) in the HTRF mode, and Ratio values were calculated using the formula: Ratio=(665 nm/620 nm)×10^4. The inhibition rates of the compounds at each concentration were calculated by comparison with the fluorescence intensity ratio of the control group. Then non-linear curve fittings for logarithmic concentration-inhibition rate were performed using GraphPad Prism 7, and the IC50 values of the compounds were obtained.

[2] = biological target: T2, IRAK4 protein in normal human PBMCs (Homo sapiens, UniProt Q9NWZ3); experiment: Degradation of IRAK4 protein in normal human PBMCs (AlphaLISA); type: cell-based; details: 24 h incubation
T2 construct: host or cells: normal human PBMCs
T2 sequence (Q9NWZ3 1-460): T1 sequence (Q9NWZ3 1-460)
Protocol: The cryopreserved normal human PBMCs (Milestone, PB010C) were thawed and resuspended in RPMI 1640 medium (Gibco, A1049101) supplemented with 10% fetal bovine serum (Gibco, 10099141), 100 U/mL penicillin, and 100 µg/mL streptomycin (Gibco, 15140122). After 0.95 mL of cells were plated in each well of a 24-well cell culture plate, 50 µL of diluted compound solution was added to corresponding wells with cells, such that the final concentration of the compound fell within the range of 0.01-3000 nM. The final concentration of DMSO was 0.25%. After the compound-treated cell plate was incubated in an incubator at 37° C. with 5% CO2 for 24 h, the cells were collected into 1.5 mL centrifuge tubes and centrifuged at 1000 rpm at 4° C. for 5 min. The cell pellets were washed twice with 1×DPBS. The resuspended cells were lysed with 100 μL of lysis buffer, left to stand on ice for 30 min, and then centrifuged at 14000 g at 4° C. for 10 min. The samples of the cell lysate supernatant after centrifugation were cryopreserved at −80° C. before testing. The cell lysis buffer was a Western and IP cell lysis buffer (Beyotime, P0013) supplemented with 1 mM phenylmethylsulfonyl fluoride and a protease inhibitor cocktail (Beyotime, P1008).
The total protein concentrations of the cell lysate samples were determined using a BCA protein quantification kit (Tiangen, PA115-02).
The prepared PBMC lysate samples were assayed for IRAK4 concentrations using a human IRAK4 AlphaLISA assay kit (PerkinElmer, AL3117C) to determine the degradation effects of the compounds on IRAK4. The method is as follows:
5 μL of each of IRAK4 standard solutions with different concentrations and test samples of cell lysate supernatant were added to a white 384-well plate (PerkinElmer, 6007299), and then 10 μL of 5× anti-IRAK4 […] beads was added to each well (final concentration of 10 μg/mL). The plate was incubated at room temperature for 30 min. Then 10 μL of 5× biotin-labeled anti-IRAK4 antibody was added to each well (final concentration of 1 nM), and the plate was incubated at room temperature for another 60 min. Finally, 25 μL of 2× streptavidin-labeled donor beads was added to each well (final concentration of 40 μg/mL), and the plate was incubated at room temperature for another 30 min. After the incubation was completed, AlphaLISA signal values were measured on a microplate reader EnVision (PerkinElmer, 2105) in the AlphaScreen standard mode. A standard curve was plotted from the AlphaLISA signal values of the IRAK4 standard solutions with different concentrations, and the IRAK4 concentration of each cell lysate supernatant was determined according to the corresponding concentrations on the standard curve for the AlphaLISA signal values of the test samples and by performing corresponding correction on the total protein concentration of each sample obtained by BCA quantification. The degradation rates for the compounds at each concentration were calculated by comparing the IRAK4 concentration with that of the control group. Then non-linear curve fittings for logarithmic concentration-inhibition rate were performed using GraphPad Prism 8, and the DC50 and Dmax values of the compound were obtained.

SMILES | IC50 [1] | DC50 [2] | Dmax [2]
O=C1CCN(c2cc(C(=O)N3CCC4(CCN(C[C@H]5CC[C@H](n6cc(NC(=O)c7cnn8ccc(N9CC%10(COC%10)C9)nc78)c(C(F)F)n6)CC5)CC4)CC3)ccc2Cl)C(=O)N1 [Example 19, N-(1-((1R,4R)-4-((9-(4-chloro-3-(2,4-dioxotetrahydropyrimidin-1(2H)-yl)benzoyl)-3,9-diazaspiro[5.5]undecan-3-yl)methyl)cyclohexyl)-3-(difluoromethyl)-1H-pyrazol-4-yl)-5-(2-oxa-6-azaspiro[3.3]heptan-6-yl)pyrazolo[1,5-a]pyrimidine-3-carboxamide] | 36.1 nM | 0.47 nM | 98%
CN(CCC1CCN(C(=O)c2ccc(Cl)c(N3CCC(=O)NC3=O)c2)CC1)C[C@H]1CC[C@H](n2cc(NC(=O)c3cnn4ccc(N5CCOCC5)nc34)c(C(F)F)n2)CC1 [Example 9, N-(1-((1R,4R)-4-(((2-(1-(4-chloro-3-(2,4-dioxotetrahydropyrimidin-1(2H)-yl)benzoyl)piperidin-4-yl)ethyl)(methyl)amino)methyl)cyclohexyl)-3-(difluoromethyl)-1H-pyrazol-4-yl)-5-morpholinopyrazolo [1,5-a]pyrimidine-3-carboxamide] | 4.64 nM | 0.39 nM | 98%
CN(CCC1CCN(C(=O)c2ccc(Cl)c(N3CCC(=O)NC3=O)c2)CC1)C[C@H]1CC[C@H](n2cc(NC(=O)c3cnn4ccc(N5CCC[C@H](N)C5)nc34)c(C(F)F)n2)CC1 [Example 18, 5-((S)-3-aminopiperidin-1-yl)-N-(1-((1R,4S)-4-(((2-(1-(4-chloro-3-(2,4-dioxotetrahydropyrimidin-1(2H)-yl)benzoyl)piperidin-4-yl)ethyl)(methyl)amino)methyl)cyclohexyl)-3-(difluoromethyl)-1H-pyrazol-4-yl)pyrazolo[1,5-a]pyrimidine-3-carboxamide] | 7.86 nM | 0.77 nM | 99.5%
O=C1CCN(c2cc(C(=O)N3CCC4(CCN(C[C@H]5CC[C@H](n6cc(NC(=O)c7cnn8ccc(N9CCOCC9)nc78)c(C(F)F)n6)CC5)CC4)CC3)ccc2Cl)C(=O)N1 [Example 8, N-(1-((1R,4R)-4-((9-(4-chloro-3-(2,4-dioxotetrahydropyrimidin-1(2H)-yl)benzoyl)-3,9-diazaspiro [5.5]undecan-3-yl)methyl)cyclohexyl)-3-(difluoromethyl)-1H-pyrazol-4-yl)-5-morpholinopyrazolo[1,5-a]pyrimidine-3-carboxamide] | 17 nM | 0.8 nM | 99.1%
COc1ccc(C(=O)N2CCC(CCN(C)C[C@H]3CC[C@H](n4cc(NC(=O)c5cnn6ccc(N7CCC[C@H](N)C7)nc56)c(C(F)F)n4)CC3)CC2)cc1N1CCC(=O)NC1=O [Example 15, 5-((S)-3-aminopiperidin-1-yl)-N-(3-(difluoromethyl)-1-((1R,4S)-4-(((2-(1-(3-(2,4-dioxotetrahydropyrimidin-1(2H)-yl)-4-methoxybenzoyl)piperidin-4-yl)ethyl)(methyl)amino)methyl)cyclohexyl)-1H-pyrazol-4-yl)pyrazolo[1,5-a]pyrimidine-3-carboxamide] | 3.86 nM | 1.49 nM | 98.8%
CN(CCC1CCN(C(=O)c2ccc(Cl)c(N3CCC(=O)NC3=O)c2)CC1)C[C@H]1CC[C@H](n2cc(NC(=O)c3cnn4ccc(N5CC6CCC(C5)O6)nc34)c(C(F)F)n2)CC1 [Example 10, 5-(8-oxa-3-azabicyclo[3.2.1]octan-3-yl)-N-(1-((1R,4R)-4-(((2-(1-(4-chloro-3-(2,4-dioxotetrahydropyrimidin-1(2H)-yl)benzoyl)piperidin-4-yl)ethyl)(methyl)amino)methyl)cyclohexyl)-3-(difluoromethyl)-1H-pyrazol-4-yl)pyrazolo[1,5-a]pyrimidine-3-carboxamide] | 8.05 nM | 0.67 nM | 97.6%

The next lines start with the values.

IC50 [1] | DC50 [2] | Dmax [2] | SMILES
10.6 nM | 1.58 nM | 98.6% | COc1cc2nn([C@H]3CC[C@](O)(COCC4CCN(C(=O)c5ccc(Cl)c(N6CCC(=O)NC6=O)c5)CC4)CC3)cc2cc1NC(=O)c1cccc(C(F)(F)F)n1 [Example 33, N-(2-((1S,4S)-4-(((1-(4-chloro-3-(2,4-dioxotetrahydropyrimidin-1(2H)-yl)benzoyl)piperidin-4-yl)methoxy)methyl)-4-hydroxycyclohexyl)-6-methoxy-2H-indol-5-yl)-6-(trifluoromethyl)pyridinecarboxamide]
2.98 nM | 0.28 nM | 97.8% | Cc1ccc(C(=O)N2CCC3(CCN(C[C@H]4CC[C@H](n5cc(NC(=O)c6cnn7ccc(N8CCC[C@H](O)C8)nc67)c(C(F)F)n5)CC4)CC3)CC2)cc1N1CCC(=O)NC1=O [Example 27, N-(3-(difluoromethyl)-1-((1R,4S)-4-((9-(3-(2,4-dioxotetrahydropyrimidin-1(2H)-yl)-4-methylbenzoyl)-3,9-diazaspiro[5.5]undecan-3-yl)methyl)cyclohexyl)-1H-pyrazol-4-yl)-5-((S)-3-hydroxypiperidin-1-yl)pyrazolo[1,5-a]pyrimidine-3-carboxamide]
17 nM | 1.11 nM | 98.1% | COc1ccc(C(=O)N2CCC(CCN(C)C[C@H]3CC[C@H](n4cc(NC(=O)c5cnn6ccc(N7CC8(COC8)C7)nc56)c(C(F)F)n4)CC3)CC2)cc1N1CCC(=O)NC1=O [Example 32, N-(3-(difluoromethyl)-1-((1R,4R)-4-(((2-(1-(3-(2,4-dioxotetrahydropyrimidin-1(2H)-yl)-4-methoxybenzoyl)piperidin-4-yl)ethyl)(methyl)amino)methyl)cyclohexyl)-1H-pyrazol-4-yl)-5-(2-oxa-6-azaspiro[3.3]heptan-6-yl)pyrazolo[1,5-a]pyrimidine-3-carboxamide]
12.9 nM | 1.32 nM | 99.1% | COc1cc2nn([C@H]3CC[C@](O)(COCCC4CCN(C(=O)c5ccc(Cl)c(N6CCC(=O)NC6=O)c5)CC4)CC3)cc2cc1NC(=O)c1cccc(C(F)(F)F)n1 [Example 34]
15.1 nM | 0.65 nM | 99.7% | COc1cc2nn([C@H]3CC[C@](O)(CN(C)CC4CCC5(CC4)CCN(C(=O)c4ccc(Cl)c(N6CCC(=O)NC6=O)c4)CC5)CC3)cc2cc1NC(=O)c1cccc(C(F)(F)F)n1 [Example 35]
9.29 nM | 2.03 nM | 98.6% | COc1cc2nn([C@H]3CC[C@@](COCCC4CCN(C(=O)c5ccc(Cl)c(N6CCC(=O)NC6=O)c5)CC4)(OC)CC3)cc2cc1NC(=O)c1cccc(C(F)(F)F)n1 [Example 36]
